Laboratory results reported in ChEMBL document CHEMBL3352572, “Design, synthesis and antioxidant activity evaluation of novel β-elemene derivatives” (Bioorg Med Chem Lett, 2014).

Tests used:
HUVEC [1] = assay: Antioxidant activity in HUVEC assessed as suppression of ROS production by measuring fluorescent intensity index at 5 uM pre-incubated for 24 hrs before H2O2 stimulation for 2 hrs by DCF dye based fluorimetric assay; format: functional, Homo sapiens
HUVEC [2] = assay: Antioxidant activity in HUVEC assessed as suppression of ROS production by measuring fluorescent intensity index at 10 uM pre-incubated for 24 hrs before H2O2 stimulation for 2 hrs by DCF dye based fluorimetric assay; format: functional, Homo sapiens
HUVEC [3] = assay: Cytotoxicity against HUVEC assessed as cell death 1000 uM after 24 hrs by MTT assay; format: cell-based; conditions: human
HUVEC [4] = assay: Cytoprotective activity in H2O2-treated HUVEC assessed as reduction in H2O2-induced cell death at 0.5 to 50 uM pre-incubated for 24 hrs before H2O2 stimulation for 2 hrs by MTT assay; format: functional, cell-based; conditions: Homo sapiens
HUVEC [5] = assay: Cytoprotective activity in H2O2-treated HUVEC assessed as cell survival at 0.5 uM pre-incubated for 24 hrs before H2O2 stimulation for 2 hrs by MTT assay (reference value: 66.91%); format: functional; conditions: Homo sapiens, read-out: Survival
HUVEC [6] = assay: Antioxidant activity in HUVEC assessed as suppression of ROS production pre-incubated for 24 hrs before H2O2 stimulation for 2 hrs by DCF dye based fluorescence microscopy; format: functional, cell-based; conditions: Homo sapiens
HUVEC [7] = assay: Reduction in MDA level in H2O2-treated HUVEC at 0.5 to 50 uM pre-incubated for 24 hrs before H2O2 stimulation for 2 hrs; format: functional, cell-based; conditions: Homo sapiens
[8] = Cytotoxicity against HUVEC assessed as cell survival at 0.5 to 50 uM after 24 hrs by MTT assay; format: cell-based; conditions: human, HUVEC cells; read-out: Survival
HUVEC [9] = assay: Reduction in LDH release in H2O2-treated HUVEC at 0.5 to 50 uM pre-incubated for 24 hrs before H2O2 stimulation for 2 hrs; format: functional, cell-based; conditions: Homo sapiens
HUVEC [10] = assay: Increase in SOD activity in H2O2-treated HUVEC at 0.5 to 50 uM pre-incubated for 24 hrs before H2O2 stimulation for 2 hrs; format: functional, cell-based; conditions: Homo sapiens
HUVEC [11] = assay: Antioxidant activity in HUVEC assessed as suppression of ROS production at 0.5 uM pre-incubated for 24 hrs before H2O2 stimulation for 2 hrs by DCF dye based fluorescence microscopy; format: functional, cell-based; conditions: Homo sapiens
HUVEC [12] = assay: Cytoprotective activity in H2O2-treated HUVEC assessed as cell survival at 50 uM pre-incubated for 24 hrs before H2O2 stimulation for 2 hrs by MTT assay (reference value: 66.91%); format: functional; conditions: Homo sapiens, read-out: Survival
HUVEC [13] = assay: Increase in nitric oxide secretion in H2O2-treated HUVEC at 0.5 to 50 uM pre-incubated for 24 hrs before H2O2 stimulation for 2 hrs; format: functional, cell-based; conditions: Homo sapiens
HUVEC [14] = assay: Antioxidant activity in HUVEC assessed as suppression of ROS production by measuring fluorescent intensity index at 100 uM pre-incubated for 24 hrs before H2O2 stimulation for 2 hrs by DCF dye based fluorimetric assay; format: functional, cell-based; conditions: Homo sapiens

With C=C[C@]1(C)CC[C@@H](C(=C)COC(=O)c2ccc(C)cc2)C[C@H]1C(=C)C the Flu intensity (HUVEC [1]) was 1.411.
With C=C[C@]1(C)CC[C@@H](C(=C)COC(=O)c2ccc(F)cc2)C[C@H]1C(=C)C the Flu intensity (HUVEC [1]) was 1.417.
C=C[C@]1(C)CC[C@@H](C(=C)C)C[C@H]1C(=C)COC(=O)c1ccco1 gave a Flu intensity (HUVEC [1]) of 1.39.
C=C[C@]1(C)CC[C@@H](C(=C)CO)C[C@H]1C(=C)C gave a Flu intensity (HUVEC [1]) of 1.291.
Molecule C=C[C@]1(C)CC[C@@H](C(=C)COC(=O)c2ccccc2)C[C@H]1C(=C)C has a Flu intensity (HUVEC [1]) of 1.355.
In the case of C=C[C@]1(C)CC[C@@H](C(=C)COC(=O)c2ccco2)C[C@H]1C(=C)C, the Flu intensity (HUVEC [1]) is reported as 1.488.
For C=C[C@]1(C)CC[C@@H](C(=C)C)C[C@H]1C(=C)COC(=O)c1ccccc1C(=O)O, the Flu intensity (HUVEC [1]) was 1.415.
Molecule C=C[C@]1(C)CC[C@@H](C(=C)C)C[C@H]1C(=C)COC(=O)c1ccccc1O has a Flu intensity (HUVEC [1]) of 1.376.
With C=C[C@]1(C)CC[C@@H](C(=C)C)C[C@H]1C(=C)COC(=O)c1cccnc1 the Flu intensity (HUVEC [1]) was 1.397.
C=C[C@]1(C)CC[C@@H](C(=C)C)C[C@H]1C(=C)COC(=O)c1ccc(C)cc1 gave a Flu intensity (HUVEC [1]) of 1.322.
Work on C=C[C@]1(C)CC[C@@H](C(=C)C)C[C@H]1C(=C)COC(=O)CCC(=O)O yielded a Flu intensity (HUVEC [1]) of 1.468.
For C=C[C@]1(C)CC[C@@H](C(=C)C)C[C@H]1C(=C)COC(=O)c1ccncc1, the Flu intensity (HUVEC [1]) was 1.411.
With C=C[C@]1(C)CC[C@@H](C(=C)COC(=O)c2ccc(OC)cc2)C[C@H]1C(=C)C the Flu intensity (HUVEC [1]) was 1.429.
Work on C=C[C@]1(C)CC[C@@H](C(=C)C)C[C@H]1C(=C)C yielded a Flu intensity (HUVEC [1]) of 1.281 and a Flu intensity (HUVEC [2]) of 1.23.
In the case of C=C[C@]1(C)CC[C@@H](C(=C)C)C[C@H]1C(=C)COC(=O)c1ccccc1, the Flu intensity (HUVEC [1]) is reported as 1.445.
For C=C[C@]1(C)CC[C@@H](C(=C)COC(=O)c2ccccc2O)C[C@H]1C(=C)C, the Flu intensity (HUVEC [1]) was 1.286.
Molecule C=C[C@]1(C)CC[C@@H](C(=C)COC(=O)c2cccnc2)C[C@H]1C(=C)C has a Flu intensity (HUVEC [1]) of 1.524.
With C=C[C@]1(C)CC[C@@H](C(=C)COC(=O)CCC(=O)OCC(=C)[C@@H]2CC[C@@](C)(C=C)[C@H](C(=C)C)C2)C[C@H]1C(=C)C the Activity (HUVEC [3]) was “<= 50%”, the Activity (HUVEC [4]) was “Dose-dependent effect” and the viability at 0.5 µM (HUVEC [5]) was 81.2%. For the same molecule, the inhibition (HUVEC [6]) was “Dose-dependent effect”, the Flu intensity (HUVEC [1]) was 1.092 and the inhibition (HUVEC [7]) was “Dose-dependent effect”. For the same molecule, the viability at 24 h, up to 50 µM [8] was greater than 92%, the inhibition (HUVEC [9]) was “Dose-dependent effect” and the Activity (HUVEC [10]) was “Dose-dependent effect”. The inhibition (HUVEC [11]) was “Dose-dependent effect”, the viability at 50 µM (HUVEC [12]) was 100% and the Activity (HUVEC [13]) was “Dose-dependent effect”.
C=C[C@]1(C)CC[C@@H](C(=C)C)C[C@H]1C(=C)COC(=O)c1ccc(OC)cc1 gave a Flu intensity (HUVEC [1]) of 1.387.
Molecule C=C[C@]1(C)CC[C@@H](C(=C)C)C[C@H]1C(=C)CO has a Flu intensity (HUVEC [1]) of 1.37.
With C=C[C@]1(C)CC[C@@H](C(=C)COC(=O)c2ccc(Cl)cc2)C[C@H]1C(=C)C the Flu intensity (HUVEC [1]) was 1.324.
With C=C[C@]1(C)CC[C@@H](C(=C)COC(=O)CC)C[C@H]1C(=C)C the Flu intensity (HUVEC [1]) was 1.322.
Work on C=C[C@]1(C)CC[C@@H](C(=C)COC(=O)c2cccc(F)c2)C[C@H]1C(=C)C yielded a Flu intensity (HUVEC [1]) of 1.39.
For C=C[C@]1(C)CC[C@@H](C(=C)COC(=O)c2ccccc2C(=O)OCC(=C)[C@@H]2CC[C@@](C)(C=C)[C@H](C(=C)C)C2)C[C@H]1C(=C)C, the Activity (HUVEC [3]) was “<= 50%”, the Activity (HUVEC [4]) was “Dose-dependent effect” and the inhibition (HUVEC [6]) was “Dose-dependent effect”. The Flu intensity (HUVEC [1]) was 1.114, the inhibition (HUVEC [7]) was “Dose-dependent effect” and the viability at 24 h, up to 50 µM [8] was greater than 92%. For the same molecule, the inhibition (HUVEC [9]) was “Dose-dependent effect”, the Activity (HUVEC [10]) was “Dose-dependent effect” and the inhibition (HUVEC [11]) was “Dose-dependent effect”. The viability at 50 µM (HUVEC [12]) was 97.9% and the Activity (HUVEC [13]) was “Dose-dependent effect”.
Work on C=C[C@]1(C)CC[C@@H](C(=C)COC(=O)c2ccccc2C(=O)O)C[C@H]1C(=C)C yielded a Flu intensity (HUVEC [1]) of 1.416.
For VITAMIN E, the Flu intensity (HUVEC [14]) was 1.23.
C=C[C@]1(C)CC[C@@H](C(=C)COC(=O)c2ccncc2)C[C@H]1C(=C)C showed a Flu intensity (HUVEC [1]) of 1.447.
Molecule C=C[C@]1(C)CC[C@@H](C(=C)C)C[C@H]1C(=C)COC(C)=O has a Flu intensity (HUVEC [1]) of 1.322.
With C=C[C@]1(C)CC[C@@H](C(=C)COC(=O)CCC)C[C@H]1C(=C)C the Flu intensity (HUVEC [1]) was 1.365.
Molecule C=C[C@]1(C)CC[C@@H](C(=C)C)C[C@H]1C(=C)COC(=O)c1cccc(F)c1 has a Flu intensity (HUVEC [1]) of 1.39.
In the case of C=C[C@]1(C)CC[C@@H](C(=C)COC(=O)c2ccccc2Cl)C[C@H]1C(=C)C, the Flu intensity (HUVEC [1]) is reported as 1.388.
Molecule C=C[C@]1(C)CC[C@@H](C(=C)C)C[C@H]1C(=C)COC(=O)c1ccccc1C(=O)OCC(=C)[C@@H]1C[C@H](C(=C)C)CC[C@@]1(C)C(=C)C has a Flu intensity (HUVEC [1]) of 1.168.
C=C[C@]1(C)CC[C@@H](C(=C)C)C[C@H]1C(=C)COC(=O)c1ccc([N+](=O)[O-])cc1 gave a Flu intensity (HUVEC [1]) of 1.393.
C=C[C@]1(C)CC[C@@H](C(=C)C)C[C@H]1C(=C)COC(=O)CC gave a Flu intensity (HUVEC [1]) of 1.383.
C=C[C@]1(C)CC[C@@H](C(=C)COC(=O)c2ccc([N+](=O)[O-])cc2)C[C@H]1C(=C)C gave a Flu intensity (HUVEC [1]) of 1.304.
With C=C[C@]1(C)CC[C@@H](C(=C)C)C[C@H]1C(=C)COC(=O)c1ccccc1Cl the Flu intensity (HUVEC [1]) was 1.443.
Molecule C=C[C@]1(C)CC[C@@H](C(=C)COC(=O)CCC(=O)O)C[C@H]1C(=C)C has a Flu intensity (HUVEC [1]) of 1.403.
With C=C[C@]1(C)CC[C@@H](C(=C)COC(C)=O)C[C@H]1C(=C)C the Flu intensity (HUVEC [1]) was 1.391.
In the case of C=C[C@]1(C)CC[C@@H](C(=C)C)C[C@H]1C(=C)COC(=O)CCC, the Flu intensity (HUVEC [1]) is reported as 1.338.
C=C[C@]1(C)CC[C@@H](C(=C)C)C[C@H]1C(=C)COC(=O)c1ccc(Cl)cc1 showed a Flu intensity (HUVEC [1]) of 1.458.
C=C[C@]1(C)CC[C@@H](C(=C)C)C[C@H]1C(=C)COC(=O)c1ccc(F)cc1 gave a Flu intensity (HUVEC [1]) of 1.306.
For C=C[C@]1(C)CC[C@@H](C(=C)C)C[C@H]1C(=C)COC(=O)CCC(=O)OCC(=C)[C@@H]1C[C@H](C(=C)C)CC[C@@]1(C)C(=C)C, the Flu intensity (HUVEC [1]) was 1.123.
